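The concentration for 50% growth inhibition is given as GI50. TGI is the concentration that stops growth completely.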
Legend:
Assay in all cases: DTP human tumour cell line panel, 384-well format
[1] = tested on: DU-145 prostate
[2] = tested on: HS 578T breast
[3] = tested on: MALME-3M melanoma
[4] = tested on: HCC-2998 colon
[5] = tested on: OVCAR-3 ovarian
[6] = tested on: M14 melanoma
[7] = tested on: RXF 393 renal
[8] = tested on: OVCAR-8 ovarian
[9] = tested on: OVCAR-5 ovarian
[10] = tested on: MDA-MB-231 breast
[11] = tested on: SK-MEL-5 melanoma
[12] = tested on: NCI-H522 lung
[13] = tested on: SK-MEL-28 melanoma
[14] = tested on: 786-0 renal
[15] = tested on: A498 renal
[16] = tested on: SN12C renal
[17] = tested on: RPMI-8226 leukemia
[18] = tested on: SK-OV-3 ovarian
[19] = tested on: UACC-62 melanoma
[20] = tested on: SR leukemia
[21] = tested on: TK-10 renal
[22] = tested on: NCI/ADR-RES ovarian
[23] = tested on: ACHN renal
[24] = tested on: NCI-H23 lung
[25] = tested on: CCRF-CEM leukemia
[26] = tested on: HCT-15 colon
[27] = tested on: SW-620 colon
[28] = tested on: SNB-19 CNS
[29] = tested on: SF-268 CNS

CN(C[C@@H]1COCCO1)S(=O)(=O)Nc1ccc2ccc3ncc(-c4cnn(C)c4)cc3c(=O)c2c1
GI50 [1]: 5.46 µM
TGI [1]: > 100 µM
GI50 [2]: 1990 nM
TGI [2]: 8.1 µM
GI50 [3]: 3.48 µM
TGI [3]: 73.6 µM
GI50 [4]: 39.6 µM
TGI [4]: > 100 µM
GI50 [5]: 12.3 µM
TGI [5]: > 100 µM
GI50 [6]: 3.67 µM
TGI [6]: > 100 µM
GI50 [7]: 5.6 µM
TGI [7]: > 100 µM
GI50 [8]: 6.02 µM
TGI [8]: > 100 µM
GI50 [9]: 24 µM
TGI [9]: > 100 µM
GI50 [10]: 8.45 µM
TGI [10]: > 100 µM
GI50 [11]: 2610 nM
TGI [11]: 19.2 µM
GI50 [12]: 2680 nM
TGI [12]: 9.07 µM
GI50 [13]: > 100 µM
TGI [13]: > 100 µM
GI50 [14]: 5.58 µM
TGI [14]: > 100 µM
GI50 [15]: 808 nM
TGI [15]: 62.5 µM
GI50 [16]: 1640 nM
TGI [16]: 8.8 µM
GI50 [17]: 1360 nM
TGI [17]: 5.21 µM
GI50 [18]: 1450 nM
TGI [18]: 14.5 µM
GI50 [19]: 3.36 µM
TGI [19]: > 100 µM
GI50 [20]: 2490 nM
TGI [20]: 7.48 µM
GI50 [21]: 8.38 µM
TGI [21]: > 100 µM
GI50 [22]: 3.56 µM
TGI [22]: 25.5 µM
GI50 [23]: 2560 nM
TGI [23]: > 100 µM
GI50 [24]: 588 nM
TGI [24]: 5.43 µM
GI50 [25]: 3.12 µM
TGI [25]: 9.46 µM
GI50 [26]: 3.09 µM
TGI [26]: > 100 µM
GI50 [27]: 7.12 µM
TGI [27]: > 100 µM
GI50 [28]: 27.2 µM
TGI [28]: > 100 µM
GI50 [29]: 5.68 µM
TGI [29]: > 100 µM
